In assay [1] the test system is C57BL/6 mice given sublethal TBI. Nature of the assay: Thymic regeneration after sublethal total body irradiation (SL-TBI, 550 cGy). The settings on record: TC-G 1008 20 mg/mouse/day by guided feeding day 0 to day 10, 550 cGy TBI, day 10. The format is in vivo, mouse. The source says:
FIGS. 4A-4G. […] (4A, 4B) 6-8 week-old female C57BL/6 mice were fed a normal or ZD diet for 21 days at which point mice were given a sublethal dose of total body irradiation (TBI, 550 cGy). (4A) Total thymic cellularity at days 7 and 14 after TBI (n=10/treatment/timepoint across two independent experiments). (4B) Total number of CD45-EpCAM^+MHCII^+UEA1^loLy51^hi (cTECs) and CD45^− EpCAM^+MHCII^+UEA1^hi Ly51^lo (mTECs) at days 7 and 14 after TBI (n=10/treatment/timepoint across two independent experiments). (4C) 6-12 week-old female BALB.B mice were fed with normal or ZD diet for 21 days, at which point mice were given a lethal dose of TBI (900cGy) and 10×10^6 T cell-depleted bone marrow (BM) cells from 6-8 week-old C57BL/6. One cohort also received 2×10^6 T cells to induce graft versus host disease (GVHD); thymic cellularity was quantified on day 14 after allogeneic hematopoietic stem cell transplant (allo-HCT, n=5-6/group). (4D) 6-8 week-old female C57BL/6 mice were fed with normal or ZD diet for 21 days at which point mice were given 550 cGy TBI and total thymus cellularity quantified on day 14. […] (4E) Total thymic cellularity. (4F) Total number of cTECs and mTECs. (4G) Total number of Ki-67+ thymic endothelial cells (TECs). […]

For assay [2], the system named is Male C57BL/6 mice aged 2 mo, 12 mo or 19 mo. Nature of the assay: Thymus cellularity in mice aged 2, 12 or 19 months. It is filed as in vivo, mouse. The note with it: TC-G 1008 20 mg/kg/day for 5 days, day 7, versus untreated controls. As to the method:
FIG. 14. Male C57BL/6 mice aged 2 mo, 12 mo or 19 mo were given the GPR39 agonist TC-G 1008 (20 mg/kg/day) for 5 days. Thymus cellularity was measured at day 7.

Assay [3] deals with mice given lethal TBI and T cell depleted BM (allo-HCT). Nature of the assay: Thymic reconstitution after T cell-depleted allogeneic HCT. The format is in vivo. The note with it: BALB.B recipients, 900 cGy, TC-G 1008 20 mg/mouse/day day 0-8, 10 and 12, day 14.
A further assay has as its target T1, GPR39 (Mus musculus, UniProt Q5U431).
T1 construct: endogenous in cells; host or cells: thymic endothelial cells (ECs / exECs)
T1 sequence (Q5U431 1-456): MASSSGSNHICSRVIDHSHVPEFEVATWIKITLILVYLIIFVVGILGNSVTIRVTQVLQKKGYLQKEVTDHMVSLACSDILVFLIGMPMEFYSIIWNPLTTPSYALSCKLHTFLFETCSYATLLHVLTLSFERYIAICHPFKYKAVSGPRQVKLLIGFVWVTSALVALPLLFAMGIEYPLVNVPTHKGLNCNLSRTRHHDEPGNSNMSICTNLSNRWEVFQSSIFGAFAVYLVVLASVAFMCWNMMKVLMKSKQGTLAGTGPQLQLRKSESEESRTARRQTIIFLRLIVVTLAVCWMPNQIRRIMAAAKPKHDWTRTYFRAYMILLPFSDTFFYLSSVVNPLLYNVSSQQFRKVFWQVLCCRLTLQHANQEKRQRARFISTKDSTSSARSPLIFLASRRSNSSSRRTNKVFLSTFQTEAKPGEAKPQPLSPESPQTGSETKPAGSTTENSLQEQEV
Nature of the assay: Ca2+ live imaging of ECs with Fluo3-AM. It is filed as cell-based. The note with it: 20 mins post stimulation, AUC. From the text: FIGS. 20A-20D. […] (20D) GPR39 cell surface levels in thymocytes and TECs at d0. Graphs represent mean+/−SEM.

The test system of the next assay is Bmp4 in exECs. In words: Bmp4 expression by qPCR in exECs. It is filed as cell-based, mouse. The note with it: TC-G 1008 25 μM, 24 hours, compared with ZnSO4 100 μM.

The text below walks through data of patent US20230263800A1, “COMPOSITIONS AND METHODS TO PROMOTE THYMIC FUNCTION” (Fred Hutchinson Cancer Center, priority 2020, published 2023).

Entries after “also recorded” stand apart in the source; their conditions may differ.

On to `CNc1nc(NCc2ccc(NS(C)(=O)=O)cc2Cl)cc(-c2ccccn2)n1` [TC-G 1008, N-[3-chloro-4-[[[2-(methylamino)-6-pyridin-2-ylpyrimidin-4-yl]amino]methyl]phenyl]methanesulfonamide], for which the “thymic function (thymus cellularity)” value in assay [1] is on record as “significantly improved thymic function”. Moreover, the thymus cellularity result in assay [2] is on record as “significantly improved thymus cellularity”. Besides, the thymic function result in assay [3] is recorded as “significantly improved thymic function”. The “Ca2+ influx” value on GPR39 is reported as “incudes Ca2+ influx”. In the assay with Bmp4 in exECs, the Bmp4 expression entry is on record as “induced expression of Bmp4, greater than Zn alone; also recorded: induces expression of BMP4”.
